From the SangsterLogP compilation come the findings set out here.

What is called logD is the decadic logarithm of the distribution of all forms, ionised or not, between an organic phase and buffer at a given pH. Higher therefore signals a more lipophilic compound.

For one series the following is noted: pH 2.0.
`C[C@H](NC1=NS(=O)(=O)c2ccccc21)C(=O)OCC(=O)/C=C1/N(C)c2ccccc2C1(C)C` displayed a logD of 4.21.
`Cc1ccccc1O[C@@H]1C(=O)N(Cc2ccc3c(c2)OCO3)[C@H]1c1ccc2c(c1)OCO2` yielded a logD of 4.37.
In turn, `CCN(CC)S(=O)(=O)c1ccc(C(=O)N2CCNC(=O)[C@H]2CC(=O)OC)cc1` had a logD of 1.14.

The series is the same for the next values; noted with them: pH 5.0.
Molecule `C[C@@H](Sc1nnnn1-c1ccc(Cl)cc1)C(=O)NCC(=O)Nc1ccc(F)c(F)c1F` displayed a logD of 4.52.
The same measure, in the same setting: in the case of `Cc1ccc(N2C(=O)c3ccccc3N[C@H]2c2cccc([N+](=O)[O-])c2)cc1` it was 4.18; in that of `C[C@@H](Oc1ccc(F)cc1F)C(=O)c1cn(-c2ccc(OC(F)(F)F)cc2)nn1`, 5.83; in that of `CN(C)C(=O)[C@H]1OC(C)(C)O[C@@H]1C(=O)N(C)C`, 1.49.
Take `C[C@H]1CN(C(=O)c2csc3c2CCCC3)/C(=N/c2ccc(Cl)cc2)S1`: the logD worked out at 5.53.
On the same count and under the same terms, in the case of `N#C[C@@H](Cc1cccs1)c1ncc(C(F)(F)F)cc1Cl` it was 4.09; in that of `COc1ccc([C@H]2[C@H](C(=O)Nc3ccc(F)cc3F)c3cc(OC)c(OC)cc3C(=O)N2C)cc1OC`, 3.66.
Still for that read-out and setting: the value for `Cc1cc(Cl)ccc1O[C@@H](C)C(=O)NC1CCCCCC1` was 5.45; that for `O=C1c2ccccc2C(=O)N1/N=C/c1cc([N+](=O)[O-])ccc1Cl` was 4.03.
The same measure, in the same setting: the value for `Cc1ccccc1N[C@@H](c1ccccc1F)P(=O)(OC(C)C)OC(C)C` was 5.63; that for `CCOC(=O)c1c(NC(=O)[C@@H]2C[C@H]3CC[C@@H]2C3)sc(C(=O)N(CC)CC)c1C` was 5.05.
In turn, `O=C(CN1C(=O)c2ccccc2S1(=O)=O)Nc1ccc(S(=O)(=O)N2CCCCCC2)cc1` had a logD of 4.73.
In turn, `CCN(CC)C(=O)[C@@]12CC[C@@](C)(C(=O)O1)C2(C)C` showed a logD of 2.66.
With `O=C(NCc1ccc(F)cc1)c1nn2c(c1Br)N[C@H](c1cccs1)C[C@H]2C(F)(F)F`, the logD was determined as 5.54.
In turn, `C[C@H](NC(=O)C1CC1)c1ccccc1` had a logD of 1.85.
Same read-out and setting: the value for `COc1cc2c(cc1OC)[C@H](COc1ccc3c(C)cc(=O)oc3c1)N(C(=O)C1CCCCC1)CC2` was 5.07; that for `O=C(Nc1ccc2c(c1)OCO2)[C@@H]1COc2ccccc2O1` was 3.28; that for `COc1ccc([C@@H]2CC(=O)N(c3sc4c(c3C#N)CCCC4)C3=C2C(=O)CCC3)c(OC)c1` was 4.55.
With `CCN1C(=O)/C(=C2\SC(=S)N(Cc3ccc(OC)cc3)C2=O)c2cc(Br)ccc21`, the logD came to 6.96.
Same read-out and setting: the value for `Cc1c(Cl)c(C(F)(F)F)nn1[C@@H](C)C(=O)N1CCOCC1` was 3.08; that for `Cc1ccc([N+](=O)[O-])cc1N1C(=O)[C@@H]2[C@@H](C1=O)[C@@H](C(=O)C(C)(C)C)N1N=CC=C[C@H]21` was 3.85.
`Cc1c(N[C@@H](NC(=O)c2cccc([N+](=O)[O-])c2)C(Cl)(Cl)Cl)c(=O)n(-c2ccccc2)n1C` came in with a logD of 3.99.
Same read-out and setting: the value for `C[C@@]12CC[C@H]3C[C@]1(C#N)N(C(=O)c1cccc([N+](=O)[O-])c1)C[C@]32C` was 3.25.
The molecule `CCc1ccccc1NC(=O)[C@]12CC[C@](C)(C(=O)O1)C2(C)C` showed a logD of 3.31.
In turn, `CCOc1ccc(C[C@H]2c3cc(OCC)c(OCC)cc3CCN2C(=O)c2scnc2C)cc1OCC` yielded a logD of 4.98.
Same read-out and setting: in the case of `Cc1c(CN(C)C(=O)[C@@H](C)n2nc(C(F)F)c(Br)c2C)cnn1C` it was 3.12.
The same measure, in the same setting: the value for `CC1(C)OC[C@H](COc2c(F)c(N3CCOCC3)nc(F)c2Cl)O1` was 4.07; that for `CC(=O)C12c3ccccc3C(c3ccccc31)[C@H]1C(=O)N(c3ccc(C)c([N+](=O)[O-])c3)C(=O)[C@@H]12` was 4.74.
Same read-out and setting: in the case of `CCOc1cc([C@H]2[C@@H]3CN(C(=O)OC(C)(C)C)CC=C3C(C#N)=C(N)C2(C#N)C#N)ccc1OC(C)C` it was 5.83; in that of `C=CCN1C(=S)N(c2ccc(CC)cc2)[C@H]2CS(=O)(=O)C[C@@H]21`, 2.86; in that of `CCOC(=O)c1c(C)nc(SC[C@@]2(O)CCCC[C@@H]2SC)c(C#N)c1-c1ccccc1`, 6.01.
For `COCCCNC(=S)N1[C@H](C)CCC[C@H]1C`, the logD came out at 2.8.
As for `COc1ccc2c(c1)O[C@](O)(C(F)(F)F)CC2=O`, the logD worked out at 2.79.
Turning to `COC(=O)c1ccc([C@@H]2C3=C(C[C@H](c4ccco4)CC3=O)Nc3ccccc3N2C(=O)C2CC2)cc1`, the logD worked out at 4.44.
The same measure, in the same setting: the value for `CC[C@]1(C)NC(=S)N2N1C(=S)N[C@@]2(C)CC` was 2.44.
The same measure, in the same setting: the value for `Cc1cc(C)c([C@H]2[C@@H]3CCCC=C3C(C#N)=C(N)C2(C#N)C#N)c(C)c1` was 5.48.
The same measure, in the same setting: the value for `C=C1NC(=S)N[C@H](c2ccc(-c3ccc(C(C)=O)cc3)o2)[C@H]1C(=O)OC(C)(C)C` was 4.53; that for `CC(=O)Oc1ccc(C(=O)Nc2cccc(C(=O)c3cccc(NC(=O)c4ccc(OC(C)=O)cc4)c3)c2)cc1` was 5.34.
The molecule `COc1cc(/C=N\n2cnc3sc4c(c3c2=O)CCCC4)ccc1OCc1ccccc1` registered a logD of 5.68.
Same read-out and setting: the value for `Cc1ccc(CNC(=O)C2CCN(S(=O)(=O)c3ccc4c(c3)OCCCO4)CC2)cc1` was 4.01; that for `COc1ccc(C(=O)/C=C/Nc2ccc(Cl)c(C(F)(F)F)c2)cc1OC` was 5.31; that for `COc1cc2c(cc1OC)[C@@H](COc1ccc(F)cc1)N(C(=O)/C=C/c1ccccc1)CC2` was 5.45.
`C[C@H](C(=O)NC1CCCC1)N(c1ccc(Cl)cc1)S(C)(=O)=O` returned a logD of 3.48.
On the same count and under the same terms, in the case of `CCCOc1ccc(NC(=O)C[C@H]2C(=O)N(c3ccc(Cl)cc3)C(=S)N2C2CC2)cc1` it was 5.41; in that of `CC1=C(C)C[C@@H]2C(=O)N(c3cccc(Br)c3)C(=O)[C@H]2C1`, 3.93.

Still in this series, the particulars now being: pH 6.5.
For the molecule `Cc1ccc(S(=O)(=O)/N=C2\SC(=CN(C)C)C(=O)N2C2CCCCC2)cc1`, the logD is 4.75.
On the same count and under the same terms, in the case of `CN(c1ccccc1)S(=O)(=O)c1ccc(C(=O)/N=c2/sc3cc([N+](=O)[O-])ccc3n2C)cc1` it was 5.84; in that of `Cc1ccc2[nH]c3nc(N/N=C/C=C/c4ccco4)nnc3c2c1`, 2.18; in that of `C[C@@H](CCc1ccccc1)NC(=O)C(=O)NC[C@@H]1COc2ccccc2O1`, 4.8.
On the same count and under the same terms, in the case of `COc1cccc(/C=C/C(=O)OCC(=O)c2cc(C)n(-c3cc(C)on3)c2C)c1` it was 5.2; in that of `Cc1cc2c(cc1C)N[C@@H](c1cc3c(cc1Cl)OCO3)C1=C(CC(C)(C)CC1=O)N2`, 4.38; in that of `COc1ccccc1N(CCOC(=O)[C@@H]1CC(=O)N(c2ccccc2)C1)C1=NS(=O)(=O)c2ccccc21`, 2.5.
Consider `O=P(Oc1ccccc1)(Oc1ccccc1)O[C@@H]1C=CS(=O)(=O)C1`, for which the logD stood at 2.48.

The same series, now with this note: pH 7.0.
The molecule `Cn1c([C@@H](C#N)C(=O)[C@@H](Sc2ccccc2)c2ccccc2)nc2ccccc21` returned a logD of 5.28.

The same series, now with this note: pH 7.3.
Regarding `COc1cccc([C@@H]2C3=C(CCCC3=O)N=C(C)C2C(=O)OC[C@@H]2CCCO2)c1` (some centres undefined), the logD amounted to 3.62.
Still for that read-out and setting: in the case of `CCOc1ccc(Br)cc1[C@H]1C2=C(CC(C)(C)CC2=O)Nc2ncnn21` it was 3.85.

The same series, now with this note: pH 8.0.
In the case of `COc1cc(/C=C/C(=O)Nc2ccc(N3CCCCC3)cc2)ccc1OC(F)F`, the logD was 5.36.
In the case of `COc1ccc([C@@H](C)n2c(C)c3c(C)nnc(C)c3c2C)cc1`, the logD stood at 3.43.
`CC[C@H]1CS/C(=N\c2cccc(C)c2)N1C(=O)CCN1C(=O)c2ccccc2C1=O` returned a logD of 4.96.

The series is the same for the next values; noted with them: pH 9.0.
Molecule `CC(=O)Nc1ccc([C@@H]2C(C#N)=C(N)Oc3[nH]nc(-c4cc(C)sc4C)c32)cc1` yielded a logD of 4.26.

The series is the same for the next values; noted with them: pH 9.2.
Consider `Cc1cc(C(=O)NCCc2c(C)[nH]c3ccccc23)ccc1[N+](=O)[O-]`, for which the logD was determined as 4.12.

The same series, now with this note: pH 10.0.
In turn, `Cc1nn(C)cc1-c1cc(C(F)(F)F)n2nc(C(=O)N3C[C@@H](C)O[C@@H](C)C3)cc2n1` registered a logD of 4.11.
Same read-out and setting: the value for `CCCCSC1=C(C#N)[C@H](c2cccc([N+](=O)[O-])c2)C(C(C)=O)=C(C)N1` was 4.44; that for `CC1=C(C(=O)OC[C@@H]2CCCO2)[C@H](c2cc([N+](=O)[O-])ccc2Cl)C2=C(CC(C)(C)CC2=O)N1` was 4.53.
As for `CCn1c(SCC(=O)NC(C)(C)C)nnc1C1CCCCC1`, the logD amounted to 3.2.
The same measure, in the same setting: in the case of `CCOCc1c(C)cc(C)c([C@@H]2C(C#N)=C(N)Oc3[nH]nc(C)c32)c1C` it was 4.09.
Same read-out and setting: the value for `N#CC1=C(N)OC2=C(C(=O)C[C@H](c3ccccc3)C2)[C@H]1c1ccccc1F` was 3.07.
Take `CCOC(=O)C1=C(C)NC2=C(C(=O)C[C@H](c3ccc(OC)c(OC)c3)C2)[C@H]1c1ccccc1OC`: the logD is 3.79.
`COC(=O)C1=C(C)N=C(C)C(C(=O)OC)[C@@H]1c1cccc(Cl)c1` (some centres undefined) registered a logD of 4.22.
In the case of `CCc1ccc([C@@H]2C(C(=O)OC(C)C)=C(C)N=C3SCCC(=O)N32)cc1`, the logD came to 4.75.
The same measure, in the same setting: the value for `Cc1cc(C(F)(F)F)nn1[C@@H](C)c1nnc(Nc2ccn(Cc3ccccc3)n2)s1` was 5.34.
Regarding `CC1=C(C(=O)OCCc2ccccc2)[C@@H](c2ccc3c(c2)OCO3)C2=C(C[C@H](c3cccs3)CC2=O)N1`, the logD stood at 5.44.

Staying with this series, now noted: pH 10.5.
For the molecule `COC(=O)c1c(C)sc2c1OC(N)=C(C#N)[C@@H]2c1cc(Br)cs1`, the logD worked out at 5.06.
On the same count and under the same terms, in the case of `COCCOC(=O)C1=C(C)NC2=C(C(=O)CC(c3cccc(OC)c3)C2)C1c1coc2ccc(C)cc2c1=O` (centres undefined) it was 5.23; in that of `Clc1ccc(/C=N/NC2=Cn3c(nc4ccccc43)NN2)cc1`, 4.81.
On the same count and under the same terms, the value for `CN(C)/C=C/C(=O)c1ccc(C#Cc2ccccc2)cc1` was 4.69; that for `C[C@@H](c1nc2c3cnn(-c4ccccc4)c3ncn2n1)n1cc([N+](=O)[O-])cn1` was 3.73; that for `O=C(c1ccccc1)N1CCCC[C@@H](Sc2nnc3ccccn23)C1=O` was 3.14.
`Cn1c(N)c(C(=O)CSc2nc3sc4c(c3c(=O)n2Cc2ccccc2)CCC4)c(=O)n(C)c1=O` returned a logD of 5.21.
In the case of `CCN(C(=O)[C@@H](C)OC(=O)c1cc(OC)c(OC)c(OC)c1)c1ccccc1`, the logD is 3.4.
`Nc1nc(O/N=C/c2ccc([N+](=O)[O-])cc2)nc(N2CCOCC2)n1` yielded a logD of 3.18.
